Columns and labels:
Assay type in all cases: cell-based, human
HDAC2 = test: HDAC protein levels in CB-MNCs, Western blot densitometry; details: 24 hr, SCR 8 μM, C433 80 μM, VPA 1.25 mM
HDAC6 = test: as above; details: 24 hr, SCR 8 μM, C433 80 μM, VPA 1.25 mM
HDAC1 = test: as above; details: 24 hr, SCR 8 μM, C433 80 μM, VPA 1.25 mM
HDAC5 = test: as above; details: 24 hr, SCR 8 μM, C433 80 μM, VPA 1.25 mM
Text: (§1) Cellular proteins were separated by SDS-PAGE using Novex (Invitrogen) and transferred by iBlot (Invitrogen). The membranes were probed with mAbs against individual histone deacetylases (HDAC1, HDAC2, HDAC3, HDAC4, HDAC5, HDAC6, and β-actin; Cell Signaling Technology) and developed using a chemiluminescence system with HRP-conjugated secondary antibodies (Amersham Biosciences) according to the manufacturer's instructions.

CB CD34+ cells = test: Ex vivo expansion of CB CD34+ cells with HDACIs, phenotypic analysis by flow cytometry; details: 7 days of culture with cytokines plus HDACI
Text: CB collections were purchased from the Placental Blood Program at the New York Blood Center. CB-MNCs were isolated by Ficoll-Hypaque density centrifugation, and CD34+ cells were purified by immunotnagnetic selection as previously described (Chaurasia et al., “Chromatin-Modifying Agents Promote the Ex vivo Production of Functional Human Erythroid Progenitor Cells,” Blood 117:4632-4641 (2011), which is hereby incorporated by reference in its entirety). Highly purified (90%-98%) PCs (4.0-5.0×10^4) were cultured in SF Stemline II (Sigma-Aldrich) culture medium or IMDM (Lonza) containing 30% FBS (HyClone Laboratories) supplemented with 150 ng/ml SCF, 100 ng/ml fms-like tyrosine kinase receptor 3 (FLT3 ligand), 100 ng/ml thrombopoietin (TPO), and 50 ng/ml interleukin 3 (IL-3) (R&D Systems) and incubated in a humidified incubator maintained at 37° C. with 5% CO2. […] The cell populations studied and the various conditions under which they were cultured are referred to by specific terms listed in Table 1. Viable PC and cultured cells were enumerated using the trypan blue exclusion method. The fold expansion of CD34+ cells or subpopulations was calculated based on the number of CD34+ cells determined to be present in an individual CB collection and the number of CD34+ cells that would have been generated if all of the CD34+ cells within that primary CB collection were cultured using the various culture conditions described. PC or cultured cells expanded in the presence or absence of HDACIs were stained with an anti-human CD34 mAb or an isotype-matched control mAb and analyzed using a FACSCanto II (BD). CD34+ cells were re-isolated using a CD34+ cell isolation kit, as previously described, for further phenotypic and functional analyses. All mAbs were purchased from BD Biosciences and Cell Signaling Technology. Phenotypic analyses ([…], […], and […]7) of the ex vivo-expanded cells after 7 days in control cultures or cytokines plus an HDACI were performed as previously described (Chaurasia et al., “Chromatin-Modifying Agents Promote the Ex vivo Production of Functional Human Erythroid Progenitor Cells,” Blood 117:4632-4641 (2011), which is hereby incorporated by reference in its entirety).

class I and II HDAC = test: HDAC protein levels in CB-MNCs, Western blot, all HDACs examined; details: after 2 hours of treatment
Text: as §1

HDAC4 = test: HDAC protein levels in CB-MNCs, Western blot densitometry; details: 24 hr, SCR 8 μM, C433 80 μM, VPA 1.25 mM
Text: as §1

HDAC3 = test: as above; details: 24 hr, SCR 8 μM, C433 80 μM, VPA 1.25 mM
Text: as §1

| Structure (SMILES) | HDAC2 expression relative to b-ACTIN (%) (HDAC2) | HDAC6 expression relative to b-ACTIN (%) (HDAC6) | HDAC1 expression relative to b-ACTIN (%) (HDAC1) | HDAC5 expression relative to b-ACTIN (%) (HDAC5) | percentage of CD34+CD90+ cells (CB CD34+ cells) | inhibition of HDAC expression (class I and II HDAC) | HDAC4 expression relative to b-ACTIN (%) (HDAC4) | HDAC3 expression relative to b-ACTIN (%) (HDAC3) |
| --- | --- | --- | --- | --- | --- | --- | --- | --- |
| Nc1ccccc1NC(=O)CCCCCCC(=O)Nc1ccccc1 [C433, CAY10433] | 40.0 ± 8.0% | 35.8 ± 7.2% | 24.3 ± 0.4% | 12.6 ± 1.9% | 70.1%±18.4% | did not inhibit HDAC expression | 23.5 ± 16.5% | 28.0 ± 20.0% |
| O=C(CCCCCN1C(=O)c2cccc3cccc(c23)C1=O)NO [SCR, Scriptaid] |  |  |  |  | 73.4%±13.9% | did not inhibit HDAC expression |  |  |

— patent publication US11261429B2, “Enriched and expanded human cord blood stem cells for treatment of hematological disorders” (ICAHN SCHOOL OF MEDICINE AT MOUNT SINAI, priority 2013, dated 2022)
